The values that follow come from US5424286A (priority 1993, dated 1995).

The conditions of data set [1]: cited from earlier work.
A further data set has as its system insulin secretion. In words: Alternating bolus injections of GLP-1 and exendin-4 via left atrial catheter in anesthetized dogs. Conditions: after normalization of hyperglycemia and in euglycemic state.

Procedure for insulin secretion: GLP-1(7-36) amide was given at time 0 (0.1 nmol) and at 40 min (1 nmol).

In the case of “glucagon-like insulinotropic peptide [GLIP]”, in data set [1] (normal subjects, infusion), the “meal-related increases in blood glucose concentration and plasma insulin and glucagon” value was “significantly lowered”. Further, the “lowering of the insulin required” value in data set [1] (patients with IDDM) is “one half”. Besides, the “reduction of the requirement for insulin” value in data set [1] (patients with NIDDM) is 8 fold.

Take `CC[C@H](C)[C@H](NC(=O)[C@H](Cc1ccccc1)NC(=O)[C@H](CCC(=O)O)NC(=O)[C@H](CCCCN)NC(=O)[C@H](C)NC(=O)[C@H](C)NC(=O)[C@H](CCC(N)=O)NC(=O)CNC(=O)[C@H](CCC(=O)O)NC(=O)[C@H](CC(C)C)NC(=O)[C@H](Cc1ccc(O)cc1)NC(=O)[C@H](CO)NC(=O)[C@H](CO)NC(=O)[C@@H](NC(=O)[C@H](CC(=O)O)NC(=O)[C@H](CO)NC(=O)[C@@H](NC(=O)[C@H](Cc1ccccc1)NC(=O)[C@@H](NC(=O)CNC(=O)[C@H](CCC(=O)O)NC(=O)[C@H](C)NC(=O)[C@@H](N)Cc1c[nH]cn1)[C@@H](C)O)[C@@H](C)O)C(C)C)C(=O)N[C@@H](C)C(=O)N[C@@H](Cc1c[nH]c2ccccc12)C(=O)N[C@@H](CC(C)C)C(=O)N[C@H](C(=O)N[C@@H](CCCCN)C(=O)NCC(=O)N[C@@H](CCCNC(=N)N)C(N)=O)C(C)C` [GLP-1, glucagon-like peptide-1]: the hypoglycemia result with insulin secretion was “hypoglycemia does not occur”.
